These results are taken from the supplement of paper PMC10307832.

Compound in the assay “R406 + AZD7762”: COc1cc(Nc2ncc(F)c(Nc3ccc4c(n3)NC(=O)C(C)(C)O4)n2)cc(OC)c1OC [R406] + NC(=O)Nc1cc(-c2cccc(F)c2)sc1C(=O)N[C@H]1CCCNC1 [AZD7762] (partner 0.2 µM)
Nature of the assay: relative viability (nuclei count vs DMSO), 5 days (fraction); higher = more cells survive. The method, boiled down:
(§1)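 Nuclei were stained with Hoechst during a one-step fixation (final 0.05% Triton X-100, 1% formaldehyde, 1 ug/ml Hoechst) carried out 5 days after dosing, then counted on 4× images. The cells, lung cancer lines in 1536-well plates, had been dosed by pin tool the day after seeding with one drug alone or a fixed anchor-drug dose plus five library-drug doses (not always all listed) in √10 steps. Relative viability is the nuclei count in treated wells divided by that in vehicle wells, and each value is the median of duplicate plates.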

Compound in the assay “R406 + Vorinostat”: COc1cc(Nc2ncc(F)c(Nc3ccc4c(n3)NC(=O)C(C)(C)O4)n2)cc(OC)c1OC [R406] + O=C(CCCCCCC(=O)Nc1ccccc1)NO [Vorinostat] (partner 1 µM)
Described as above. The method, boiled down: as §1

In the case of NCI-H1975, the relative viability is 0.757 with R406 + AZD7762 (first compound 0.253 µM); 0.771 with R406 + AZD7762 (first compound 0.8 µM); 0.341 with R406 + AZD7762 (first compound 2.53 µM); 0.325 with R406 + AZD7762 (first compound 8 µM); 0.722 with R406 + Vorinostat (first compound 0.08 µM); 0.775 with R406 + Vorinostat (first compound 0.253 µM). Further, the relative viability with R406 + Vorinostat (first compound 0.8 µM) stood at 0.73; with R406 + Vorinostat (first compound 2.53 µM) it was 0.414; in the assay with R406 + Vorinostat (first compound 8 µM) it was 0.213.

As to HCC-44, the relative viability with R406 + AZD7762 (first compound 0.08 µM) worked out at 0.974; in the assay with R406 + AZD7762 (first compound 0.253 µM), 1.01; in the assay with R406 + AZD7762 (first compound 0.8 µM) it was 0.995; in the assay with R406 + AZD7762 (first compound 2.53 µM) it was 1.03; with R406 + AZD7762 (first compound 8 µM) it was 1.18; with R406 + Vorinostat (first compound 0.08 µM), 1.07. The relative viability is 1.1 with R406 + Vorinostat (first compound 0.253 µM), 1.1 with R406 + Vorinostat (first compound 0.8 µM), 1.04 in the assay with R406 + Vorinostat (first compound 2.53 µM) and 1.22 with R406 + Vorinostat (first compound 8 µM).
